Structures can show the parent of a compound that is named as a salt.
What was measured:
[1] = target: T1, α-adrenergic receptor (Rattus norvegicus, UniProt P43140); experiment: isolated rat seminal vesicle assay, in vitro α-adrenergic receptor blocking effect against norepinephrine; conditions: relative to prazosin; isolated rat seminal vesicle, test compound 10 nanograms/ml, norepinephrine agonist
T1 construct: Seminal vesicles were removed and transferred to a shallow disk containing modified Tyrode's solution; from tissue; host or cells: isolated seminal vesicle of male Long Evans rats
T1 sequence (P43140 1-466): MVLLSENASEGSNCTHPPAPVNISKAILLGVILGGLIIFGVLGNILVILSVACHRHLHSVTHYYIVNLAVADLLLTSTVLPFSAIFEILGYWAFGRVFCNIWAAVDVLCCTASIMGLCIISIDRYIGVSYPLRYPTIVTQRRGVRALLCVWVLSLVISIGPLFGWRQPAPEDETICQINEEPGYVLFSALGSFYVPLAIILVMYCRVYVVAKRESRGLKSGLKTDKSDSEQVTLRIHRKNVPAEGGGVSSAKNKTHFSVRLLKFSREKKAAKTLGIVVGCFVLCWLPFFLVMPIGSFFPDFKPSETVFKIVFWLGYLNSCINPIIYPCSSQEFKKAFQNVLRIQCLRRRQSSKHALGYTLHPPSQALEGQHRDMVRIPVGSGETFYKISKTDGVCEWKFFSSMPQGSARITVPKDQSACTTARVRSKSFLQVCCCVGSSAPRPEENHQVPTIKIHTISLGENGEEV
Experimental: (§1) In Table 1, antihypertensive activity was determined by oral administration to spontaneous hypertensive rats, the in vitro α-adrenergic receptor blocking effect was determined according to the following test method.
(§2) Dungan et al, Int. […] Lietch et al, Brit.
(§3) Male Long Evans rats weighing approximately 300 g. were sacrificed by a sharp blow on the head. Seminal vesicles were removed and transferred to a shallow disk containing modified Tyrode's solution. The vesicles were emptied of their contents by squeezing them gently with a pair of forceps. Silk thread (4-0) was attached to both ends of the vesicle and it was suspended in a 20 ml. muscle chamber containing modified oxygenated Tyrode's solution (g./liter: NaCl 8, KCl 0.2, CaCl2 0.26, NaHCO3 1, Na2 HPO4 0.0575, glucose 0.5 and MgCl2 0.02). The bathing fluid was maintained at 37° C. with a thermostatically controlled isolated organ tissue bath. Contractions were recorded isometrically by means of a force displacement transducer and recordings were made with a Beckman RP Dynograph. Norepinephrine (NE) was added to the muscle chamber in volumes ranging from 0.1 to 0.4 ml. with a one ml. syringe attached to a 3 inch 20 gauge needle. NE and test compounds were dissolved in deionized water.
(§4) NE response curves were obtained alone and in the presence of test compounds. NE was allowed to remain in contact with the strip until a maximal contraction was obtained. The strip was then washed with the perfusion fluid for 15-30 seconds and the preparation was allowed to return to base line before a subsequent dose of NE was given. Increasing amounts of NE were injected into the bath in the same manner until a complete dose response was obtained.
(§5) The seminal vesicles used to obtain the control NE dose response were discarded and new preparations were placed in the tissue bath for evaluation of the test compound. The test compound was added directly to the perfursion fluid (10 nanograms/ml.) and the strips were allowed to remain in contact with the bathing media for at least 10 minutes before the NE dose response was determined.
(§6) ED50 values for NE were obtained by regression analysis as described by Finney, Probit. Analysis, 2d Ed., Cambridge (1964). A minimum of 4 strips and at least 4 doses were employed to calculate the regression lines. The ED50 value is defined as the concentration of NE which produces a contraction equal to 50% of the maximal contraction.

[2] = test system: α-adrenergic receptor; experiment: as above; conditions: antihypertensive activity ratio (A) over α-adrenergic blocking activity ratio (B)
Experimental: as §1, §2, §3, §4, §5, §6

[3] = test system: spontaneous hypertensive rats; experiment: antihypertensive activity by oral administration to spontaneous hypertensive rats; assay type: in vivo, rat; conditions: for ED50 / Antihypertensive Activity Ratio (A): oral, spontaneous hypertensive rat; for ED50: read-out: Antihypertensive ED50 mm Hg; for Antihypertensive Activity Ratio (A): relative to prazosin
Experimental: as §1

[4] = test system: patients; conditions: human, in vivo; cited from earlier work
[5] = test system: humans; conditions: cited from earlier work

| Compound | α-Adr. Bl. Activity Ratio (B) [1] | Ratio A/B [2] | reduction in systolic blood pressure ([3]; 24 hours after oral dose of 10 mg./kg., spontaneous hypertensive rats) | ED50 [3] | Antihypertensive Activity Ratio (A) [3] | adverse reactions, recent reports (in words) [4] | antihypertensive strength compared to prazosin (in words) ([5]; clinical daily dose approximately 150 to 500 mg. for trimazosin, 1.5 to 15 mg. for prazosin) | antihypertensive activity in humans (in words) ([5]; humans) |
| --- | --- | --- | --- | --- | --- | --- | --- | --- |
| CCOC(=O)Nc1snnc1C(=O)N1CCN(c2nc(N)c3cc(OC)c(OC)cc3n2)CC1 [Example 1, 4-Amino-6,7-dimethoxy-2-[4-(5-ethoxycarbonylamino-1,2,3-thiadiazole-4-carbonyl)-piperazin-1-vl]-quinazoline Hydrochloride] | 0.15 | 5.0 | 22% | 2.8 mg/kg | 0.75 | – | – | – |
| COc1cc2nc(N3CCN(C(=O)c4ccco4)CC3)nc(N)c2cc1OC [prazosin, 2-[4-(2-furoyl)-piperazin-1-yl]-4-amino-6,7-dimethoxyquinazoline, reference compound] | – | – | – | 2.1 mg/kg | – | severe adverse reactions of postural hypotension in some patients | – | – |
| COc1cc2c(N)nc(N3CCN(C(=O)OCC(C)(C)O)CC3)nc2c(OC)c1OC [Trimazosin] | – | – | – | – | – | – | much weaker drug than prazosin | active in humans as an antihypertensive agent |
| COc1cc2nc(N3CCN(C(=O)c4cnns4)CC3)nc(N)c2cc1OC.Cl [Example 3, 4-Amino-6,7-dimethoxy-2-[4-(1,2,3-thiadiazole-5-carbonyl)piperazin-1-yl]quinazoline Hydrochloride] | 0.23 | 2.3 | – | 4 mg/kg | 0.53 | – | – | – |
| COc1cc2nc(N3CCN(C(=O)c4csnn4)CC3)nc(N)c2cc1OC.Cl [Example 2, 4Amino-6,7-dimethoxy-2-[4-(1,2,3-thiadiazole-4-carbonyl)piperazin-1-yl]quinazoline Hydrochloride] | 0.27 | 2.0 | – | 4 mg/kg | 0.53 | – | – | – |
